The supplement of paper PMC10307832

Legend:
Test in all cases: relative viability (nuclei count vs DMSO), 5 days (fraction); higher = more cells survive
Gemcitabine + Trametinib = compound: Nc1ccn([C@@H]2O[C@H](CO)[C@@H](O)C2(F)F)c(=O)n1 [Gemcitabine] + CC(=O)Nc1cccc(-n2c(=O)n(C3CC3)c(=O)c3c(Nc4ccc(I)cc4F)n(C)c(=O)c(C)c32)c1 [Trametinib] (partner 0.02 µM)
Summary of the method: (§1)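 Medians of duplicate plates are given as relative viability. That measure is the nuclei count in treated wells divided by the count in vehicle wells. Counts were taken on 4× images of lung cancer cell lines in 1536-well plates, 5 days after pin-tool dosing the day after seeding with one drug alone or a fixed anchor-drug dose plus five library-drug doses (not always all listed) in √10 steps.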

Gemcitabine + Bortezomib = compound: Nc1ccn([C@@H]2O[C@H](CO)[C@@H](O)C2(F)F)c(=O)n1 [Gemcitabine] + CC(C)C[C@H](NC(=O)[C@H](Cc1ccccc1)NC(=O)c1cnccn1)B(O)O [Bortezomib] (partner 0.002 µM)
Summary of the method: as §1

Gemcitabine + Pictilisib = compound: Nc1ccn([C@@H]2O[C@H](CO)[C@@H](O)C2(F)F)c(=O)n1 [Gemcitabine] + CS(=O)(=O)N1CCN(Cc2cc3nc(-c4cccc5[nH]ncc45)nc(N4CCOCC4)c3s2)CC1 [Pictilisib] (partner 1 µM)
Summary of the method: as §1

Gemcitabine + Olaparib = compound: Nc1ccn([C@@H]2O[C@H](CO)[C@@H](O)C2(F)F)c(=O)n1 [Gemcitabine] + O=C(c1cc(Cc2n[nH]c(=O)c3ccccc23)ccc1F)N1CCN(C(=O)C2CC2)CC1 [Olaparib] (partner 8 µM)
Summary of the method: as §1

Cell Line | relative viability (Gemcitabine + Trametinib; first compound 0.001 µM) | relative viability (Gemcitabine + Trametinib; first compound 0.003162 µM) | relative viability (Gemcitabine + Trametinib; first compound 0.01 µM) | relative viability (Gemcitabine + Trametinib; first compound 0.03162 µM) | relative viability (Gemcitabine + Trametinib; first compound 0.1 µM) | relative viability (Gemcitabine + Bortezomib; first compound 0.001 µM) | relative viability (Gemcitabine + Bortezomib; first compound 0.003162 µM) | relative viability (Gemcitabine + Bortezomib; first compound 0.01 µM) | relative viability (Gemcitabine + Bortezomib; first compound 0.03162 µM) | relative viability (Gemcitabine + Bortezomib; first compound 0.1 µM) | relative viability (Gemcitabine + Pictilisib; first compound 0.001 µM) | relative viability (Gemcitabine + Pictilisib; first compound 0.003162 µM) | relative viability (Gemcitabine + Pictilisib; first compound 0.01 µM) | relative viability (Gemcitabine + Pictilisib; first compound 0.03162 µM) | relative viability (Gemcitabine + Pictilisib; first compound 0.1 µM) | relative viability (Gemcitabine + Olaparib; first compound 0.001 µM) | relative viability (Gemcitabine + Olaparib; first compound 0.003162 µM) | relative viability (Gemcitabine + Olaparib; first compound 0.01 µM) | relative viability (Gemcitabine + Olaparib; first compound 0.03162 µM) | relative viability (Gemcitabine + Olaparib; first compound 0.1 µM)
LCLC-97TM1 | 0.169 | 0.143 | 0.12 | 0.126 | 0.0828 | 0.752 | 0.19 | 0.0897 | 0.0533 | 0.0696 | 0.141 | 0.167 | 0.126 | 0.11 | 0.12 | 0.331 | 0.178 | 0.0884 | 0.0632 | 0.0703
LCLC-103H | 0.61 | 0.695 | 0.709 | 0.712 | 0.56 | 1.1 | 1.04 | 1.05 | 1.11 | 0.934 | 0.579 | 0.641 | 0.659 | 0.627 | 0.417 | 0.771 | 0.758 | 0.734 | 0.58 | 0.367
LOU-NH91 | 0.787 | 0.762 | 0.578 | 0.466 | 0.358 | 0.498 | 0.494 | 0.423 | 0.323 | 0.313 | 0.496 | 0.475 | 0.486 | 0.389 | 0.34 | 0.92 | 0.781 | 0.501 | 0.223 | 0.264
LU99A | 0.575 | 0.635 | 0.563 | 0.594 | 0.387 | 1.14 | 1.18 | 1 | 1.25 | 1.18 | 0.33 | 0.31 | 0.313 | 0.369 | 0.333 | 0.255 | 0.272 | 0.286 | 0.226 | 0.221
LXF-289 | 0.644 | 0.683 | 0.611 | 0.205 | 0.147 | 0.995 | 1.02 | 0.768 | 0.178 | 0.0983 | 0.761 | 0.758 | 0.592 | 0.275 | 0.11 | 1.07 | 0.935 | 0.303 | 0.0848 | 0.0776
NCI-H23 | 0.277 | 0.179 | 0.121 | 0.12 | 0.1 | 0.848 | 0.511 | 0.148 | 0.141 | 0.0999 | 0.446 | 0.328 | 0.143 | 0.146 | 0.104 | 0.293 | 0.132 | 0.0825 | 0.109 | 0.0995
NCI-H322M | 0.47 | 0.327 | 0.394 | 0.382 | 0.385 | 1.35 | 0.439 | 0.334 | 0.291 | 0.234 | 0.445 | 0.178 | 0.251 | 0.239 | 0.244 | 0.564 | 0.445 | 0.356 | 0.369 | 0.411
NCI-H441 | 0.46 | 0.318 | 0.196 | 0.131 | 0.132 | 0.642 | 0.327 | 0.116 | 0.14 | 0.139 | 0.521 | 0.343 | 0.196 | 0.109 | 0.126 | 0.651 | 0.241 | 0.187 | 0.161 | 0.116
NCI-H460 | 0.105 | 0.211 | 0.0498 | 0.0169 | 0.0076 | 1.24 | 1.09 | 0.419 | 0.0106 | 0.0083 | 0.37 | 0.328 | 0.0742 | 0.0745 | 0.0388 | 0.529 | 0.426 | 0.333 | 0.0343 | 0.022
NCI-H520 | 0.848 | 0.752 | 0.159 | 0.143 | 0.144 | 0.604 | 0.698 | 0.295 | 0.154 | 0.11 | 0.333 | 0.321 | 0.254 | 0.199 | 0.161 | 0.388 | 0.48 | 0.174 | 0.159 | 0.132
NCI-H596 | 0.918 | 0.593 | 0.392 | 0.336 | 0.321 | 1 | 1.11 | 0.555 | 0.349 | 0.41 | 0.369 | 0.436 | 0.438 | 0.335 | 0.293 | 0.733 | 0.714 | 0.384 | 0.336 | 0.311
NCI-H647 | 0.404 | 0.286 | 0.117 | 0.0909 | 0.0535 | 0.783 | 0.224 | 0.0897 | 0.0721 | 0.0698 | 0.304 | 0.163 | 0.0953 | 0.0685 | 0.0658 | 0.574 | 0.103 | 0.0533 | 0.0536 | 0.0389
NCI-H650 | 0.809 | 0.469 | 0.126 | 0.141 | 0.129 | 0.847 | 0.327 | 0.201 | 0.151 | 0.175 | 0.918 | 0.502 | 0.246 | 0.166 | 0.166 | 0.364 | 0.241 | 0.113 | 0.115 | 0.102
NCI-H661 | 0.568 | 0.606 | 0.464 | 0.281 | 0.223 | 0.838 | 0.655 | 0.491 | 0.213 | 0.209 | 0.352 | 0.388 | 0.288 | 0.224 | 0.242 | 0.78 | 0.783 | 0.655 | 0.274 | 0.232
